“And” between values parts separate entries of the source, which are not always exact repeats. Equal entries are not always repeated. Toxic doses and inconclusive results are not listed. No stated cut-off is given here; in the data, active means T/C of 150% or more; inactive means T/C below 125%.
Test system: L1210 leukemia ip in BDF1 mice, survival T/C
Test: NCI In Vivo Anticancer Drug Screen. Data for tumor model L1210 Leukemia (intraperitoneal) in B6D2F1 (BDF1) mice
Details: endpoint: mean survival time, higher = longer survival
Summary of the method: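 Read-out is survival time, reported as the treated-group measurement over the vehicle-control measurement.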

[1] = dose: 100.0 mg/kg/injection, schedule: Q04DX003 (ip), vehicle: saline with Tween-80
[2] = dose: 200.0 mg/kg/injection, schedule: Q04DX003 (ip), vehicle: saline with Tween-80
[3] = dose: 400.0 mg/kg/injection, schedule: Q04DX003 (ip), vehicle: saline with Tween-80
[4] = dose: 100.0 mg/kg/injection, schedule: Q01DX009 (ip), vehicle: saline with Tween-80
[5] = dose: 200.0 mg/kg/injection, schedule: Q01DX009 (ip), vehicle: saline with Tween-80
[6] = dose: 400.0 mg/kg/injection, schedule: Q01DX009 (ip), vehicle: saline with Tween-80
[7] = dose: 100.0 mg/kg/injection, schedule: Q04DX003 (ip), vehicle: Klucel (hydroxypropylcellulose) (HPC)
[8] = dose: 200.0 mg/kg/injection, schedule: Q04DX003 (ip), vehicle: Klucel (hydroxypropylcellulose) (HPC)
[9] = dose: 400.0 mg/kg/injection, schedule: Q04DX003 (ip), vehicle: Klucel (hydroxypropylcellulose) (HPC)
[10] = dose: 100.0 mg/kg/injection, schedule: Q01DX009 (ip), vehicle: Klucel (hydroxypropylcellulose) (HPC)
[11] = dose: 200.0 mg/kg/injection, schedule: Q01DX009 (ip), vehicle: Klucel (hydroxypropylcellulose) (HPC)
[12] = dose: 75.0 mg/kg/injection, schedule: Q01DX001 (ip), vehicle: saline
[13] = dose: 150.0 mg/kg/injection, schedule: Q01DX001 (ip), vehicle: saline
[14] = dose: 300.0 mg/kg/injection, schedule: Q01DX001 (ip), vehicle: saline
[15] = dose: 400.0 mg/kg/injection, schedule: Q01DX009 (ip), vehicle: Klucel (hydroxypropylcellulose) (HPC)
[16] = dose: 12.5 mg/kg/injection, schedule: Q01DX009 (ip), vehicle: saline with Tween-80
[17] = dose: 25.0 mg/kg/injection, schedule: Q01DX009 (ip), vehicle: saline with Tween-80
[18] = dose: 50.0 mg/kg/injection, schedule: Q01DX009 (ip), vehicle: saline with Tween-80
[19] = dose: 50.0 mg/kg/injection, schedule: Q01DX001 (ip), vehicle: saline
[20] = dose: 100.0 mg/kg/injection, schedule: Q01DX001 (ip), vehicle: saline
[21] = dose: 200.0 mg/kg/injection, schedule: Q01DX001 (ip), vehicle: saline

Measured: T/C

CC(C)(CN=Cc1cccc(O)c1)N=Cc1cccc(O)c1
inactive: dose: 75.0 mg/kg/injection, schedule: Q01DX009 (ip), vehicle: DMSO 95 % of control | dose: 100.0 mg/kg/injection, schedule: Q01DX001 (ip), vehicle: DMSO 100 % of control | dose: 100.0 mg/kg/injection, schedule: Q04DX003 (ip), vehicle: DMSO 89 % of control | dose: 150.0 mg/kg/injection, schedule: Q01DX009 (ip), vehicle: DMSO 93 % of control | dose: 200.0 mg/kg/injection, schedule: Q01DX001 (ip), vehicle: DMSO 96 % of control | dose: 200.0 mg/kg/injection, schedule: Q04DX003 (ip), vehicle: DMSO 88 % of control | dose: 400.0 mg/kg/injection, schedule: Q01DX001 (ip), vehicle: DMSO 100 % of control | dose: 400.0 mg/kg/injection, schedule: Q04DX003 (ip), vehicle: DMSO 89 % of control

Nc1cc(S(N)(=O)=O)ccc1N1CCCC1
inactive: [1] 96 % of control | [2] 91 % of control | [3] 102 % of control

CCCC(C)(C)C(=O)Nc1cccc(OC(=O)NC(C)C)c1
inactive: [4] 96 % of control | [5] 86 % of control | [6] 91 % of control

COc1ccc(CNc2ncccn2)cc1
inactive: [7] 102 % of control | [8] 102 % of control | [9] 107 % of control

Cn1c(N)c(N=O)c(=O)n(C)c1=O
inactive: dose: 9.0 mg/kg/injection, schedule: Q01DX009 (ip), vehicle: saline with Tween-80 103 % of control | dose: 18.0 mg/kg/injection, schedule: Q01DX009 (ip), vehicle: saline with Tween-80 103 % of control | dose: 36.0 mg/kg/injection, schedule: Q01DX009 (ip), vehicle: saline with Tween-80 105 % of control | dose: 72.0 mg/kg/injection, schedule: Q01DX009 (ip), vehicle: saline with Tween-80 97 % of control | dose: 90.0 mg/kg/injection, schedule: Q01DX009 (ip), vehicle: saline with Tween-80 93 % of control | dose: 180.0 mg/kg/injection, schedule: Q01DX009 (ip), vehicle: saline with Tween-80 100 % of control | dose: 360.0 mg/kg/injection, schedule: Q01DX009 (ip), vehicle: saline with Tween-80 98 % of control | dose: 360.0 mg/kg/injection, schedule: Q04DX003 (ip), vehicle: saline with Tween-80 97 % of control | dose: 720.0 mg/kg/injection, schedule: Q04DX003 (ip), vehicle: saline with Tween-80 95 % of control

Cc1c(Cl)cccc1N1C(=O)CC(Sc2ccccc2N)C1=O (centres undefined)
inactive: [10] 95 % of control | [4] 106 % of control | [7] 92 % of control | [1] 94 % of control | [11] 92 % of control | [5] 107 % of control | [2] 88 % of control | [6] 109 % of control | [9] 89 % of control | [3] 93 % of control

CCCCCCN(CCCCCC)C(=S)[S-].CCCCCCN(CCCCCC)C(=S)[S-].[Zn]
inactive: [12] 112 % of control | [13] 104 % of control | [14] 103 % of control

O=C(c1ccccc1)C1C(c2ccccc2)N1C1CCCCC1 (centres undefined)
inactive: dose: 50.0 mg/kg/injection, schedule: Q01DX009 (ip), vehicle: Klucel (hydroxypropylcellulose) (HPC) 95 % of control | [10] 97 % of control and 103 % of control | [7] 96 % of control and 100 % of control | [11] 95 % of control and 89 % of control | [8] 93 % of control and 88 % of control | [15] 90 % of control and 91 % of control | [9] 95 % of control and 100 % of control

COc1cc(C=O)cc(I)c1O
inactive: [16] 94 % of control | [17] 94 % of control | [18] 91 % of control

CCn1[nH]cc2c3nnc(-c4ccccc4)c3cnc21
inactive: dose: 100.0 mg/kg/injection, schedule: Q04DX002 (ip), vehicle: Klucel (hydroxypropylcellulose) (HPC) 98 % of control | dose: 200.0 mg/kg/injection, schedule: Q04DX002 (ip), vehicle: Klucel (hydroxypropylcellulose) (HPC) 92 % of control | dose: 400.0 mg/kg/injection, schedule: Q04DX002 (ip), vehicle: Klucel (hydroxypropylcellulose) (HPC) 95 % of control

COc1ccccc1NC(=O)c1ccccc1
inactive: [10] 89 % of control | [15] 95 % of control

C[S+](C)CCCNC(=O)c1csc(CCNC(=O)c2ccccc2)n1
inactive: [16] 100 % of control | dose: 12.5 mg/kg/injection, schedule: Q04DX003 (ip), vehicle: saline with Tween-80 103 % of control | [17] 97 % of control | dose: 25.0 mg/kg/injection, schedule: Q04DX003 (ip), vehicle: saline with Tween-80 101 % of control | [18] 101 % of control | dose: 50.0 mg/kg/injection, schedule: Q04DX003 (ip), vehicle: saline with Tween-80 97 % of control

CCC(CO)(CO)C(=[N-])c1ccccc1O.CCC(CO)(CO)N=Cc1ccccc1O.[Co]
inactive: [19] 98 % of control | [20] 94 % of control | [21] 94 % of control

CC(C)=C(Br)Br
inactive: [12] 94 % of control | [13] 94 % of control | [14] 96 % of control

COS(=O)(=O)c1ccc[n+](C)c1
inactive: [19] 100 % of control | [20] 105 % of control | [21] 98 % of control | dose: 400.0 mg/kg/injection, schedule: Q01DX001 (ip), vehicle: saline 96 % of control

NC(N)=N/N=C/c1ccc(Cl)c([N+](=O)[O-])c1
inactive: dose: 6.0 mg/kg/injection, schedule: Q01DX Z (oral), vehicle: methylcellulose (MC) 93 % of control | dose: 15.0 mg/kg/injection, schedule: Q01DX Z (oral), vehicle: methylcellulose (MC) 115 % of control | dose: 30.0 mg/kg/injection, schedule: Q01DX Z (oral), vehicle: methylcellulose (MC) 109 % of control | dose: 120.0 mg/kg/injection, schedule: Q01DX Z (oral), vehicle: methylcellulose (MC) 96 % of control

Source: PubChem BioAssay AID248 (DTP/NCI, 2004)
